Converted amounts (≈) assume the structure as drawn. Read-outs that look alike come from different tables or passages of the source. Marks after values point to notes of the source that are not given here.
How the values were obtained:
[1] = test system: lipopolysaccharide-induced mouse acute lung injury model; test: Lipopolysaccharide-induced mouse acute lung injury model; assay type: in vivo, Balb/c mice; conditions: for LDH Activity in Lung / MPO Activity in Lung / MPO Content in Lung / Lung Tissue Dry-to-wet Ratio: 24 h after LPS; for Lung Tissue Dry-to-wet Ratio: mean ± SD
Procedure: Experimental method: the mice were acclimatized for 72 hours in an SPF animal room with constant temperature and constant humidity after purchase. The mice were randomly divided into four groups, that is, a blank control group (n=10), a model control group (n=10), a positive control medicine naringin group (n=11) and a p-hydroxyphenylpropionic acid group (n=11). The naringin group (180 mg/kg) and the p-hydroxyphenylpropionic acid group (51.6 mg/kg) were continuously subjected to intragastric administration once a day, for three days respectively; and the blank control group and the model control group were administered intragastrically with equivoluminal normal saline. The mice were anesthetized through intraperitoneal injection of 0.5 ml of pentobarbital sodium (65 mg/kg) three hours after the last intragastric administration. For the mice in the model group, the naringin group and the p-hydroxyphenylpropionic acid group, 50 μl of lipopolysaccharide 055:B5 solution (0.8 mg/ml) was slowly instilled into the nasal cavities of the mice until being completely absorbed, and a mouse acute lung injury model was established. The mice in the blank control group received nasal drops of the equivoluminal normal saline. The mice were killed by a cervical vertebra dislocation method 24 hours after the lipopolysaccharide modeling was performed, and the whole lung tissue of the mice was collected and put into a sterile centrifugal tube and was stored in liquid nitrogen within 30 seconds. After the lung tissue stored in the liquid nitrogen was placed at room temperature for 30 minutes, a wet weight was weighed. A drying vessel was dried at 80° C. for 24 hours and then was taken out and placed at room temperature for weighing. Then, the drying vessel was taken out after 1 hour of constant weight at 80° C. and was placed at room temperature for weighing. After the weight of the drying vessel was constant, the lung tissue was placed in the drying vessel, was dried at 80° C. for 48 hours and taken out, and was placed at room temperature for weighing. Then, the drying vessel was taken out after 1 hour of constant weight at 80° C. and was placed at room temperature for weighing. […] [formula] [formula] 24 hours after the lipopolysaccharide modeling was performed, the mice were killed and about 400 mg of lung tissue was collected. 1 ml of PBS-10% Triton was added into the lung tissue to serve as a lysis solution for homogenization. After the protein concentration was measured by a BCA protein concentration kit, the sample loading quantity was adjusted to 50 μg of total protein and 100 μl of total volume, and the content of myeloperoxidase (MPO), the activity of the MPO and the activity of lactic dehydrogenase (LDH) in the lung tissue sample were measured by kits. The data in the table are presented as mean±standard deviation, and analysis of difference among multiple groups is realized by a one-way analysis of variance Beforroni method and SPSS 22.0 software.

[2] = test system: chronic smoked mice; test: Chronic lung injury caused by smoking (chronic smoked mice); assay type: in vivo, Balb/c mice; conditions: for Cchord / FEV50/FVC: 8 weeks smoking; for Lymphocyte count of alveolar lavage fluid / Monocyte count of alveolar lavage fluid / Neutrophil count of alveolar lavage fluid: BALF; for IL-1β in lung tissue / IL-6 in lung tissue / IL-18 in lung tissue / LTB4 in lung tissue / TNF-α in lung tissue: lung tissue homogenate, ELISA
[3] = test system: Staphylococcus aureus; test: Antibacterial experiment in vitro, broth microdilution (CLSI); assay type: cell-based; conditions: 20-hour cultivation at 37° C.
[4] = test system: Klebsiella pneumoniae; test: as above; assay type: cell-based; conditions: 20 h, 20-hour cultivation at 37° C.
[5] = 180 mg/kg intragastric once a day for three days
[6] = 51.6 mg/kg intragastric once a day for three days
[7] = high-dose 60 mg/kg intragastric

## C[C@@H]1O[C@@H](O[C@H]2[C@H](Oc3cc(O)c4c(c3)O[C@H](c3ccc(O)cc3)CC4=O)O[C@H](CO)[C@@H](O)[C@@H]2O)[C@H](O)[C@H](O)[C@H]1O [Naringin, naringin]
[1]; [5]
  LDH Activity in Lung: 310.93 ± 27.77 units/gprot
  MPO Activity in Lung: 1.913 ± 0.262 units/gprot
  MPO Content in Lung: 415.85 ± 52.15 pg/mL
  Lung Tissue Dry-to-wet Ratio: 5.15 ± 0.47
[1]; 180 mg/kg intragastric, P<0.01 vs model control
  Effect on lung inflammation, pulmonary edema, neutrophil infiltration and cell necrosis in ALI (in words): effectively inhibit the progress of lung inflammation in the ALI and alleviate pulmonary edema, local neutrophil infiltration and cell necrosis

## O=C(Nc1c(Cl)cncc1Cl)c1ccc(OC(F)F)c(OCC2CC2)c1 [Roflumilast, roflumilast, reference compound]
[2]; 5 mg/kg intragastric
  Cchord: 0.042 ± 0.0054 mL/cm H2O
  FEV50/FVC: 0.367 ± 0.042
  Lymphocyte count of alveolar lavage fluid: 0.914 ± 0.227## 10^5/mL
  Monocyte count of alveolar lavage fluid: 3.014 ± 0.319## 10^5/mL
  Neutrophil count of alveolar lavage fluid: 0.729 ± 0.180## 10^5/mL
  IL-1β in lung tissue: 34.02 ± 7.098 pg/mL
  IL-6 in lung tissue: 963.2 ± 188.8 pg/mL
  IL-18 in lung tissue: 143.4 ± 18.34 pg/mL
  LTB4 in lung tissue: 6809 ± 670.8 pg/mL
  TNF-α in lung tissue: 102.4 ± 17.34 pg/mL

## O=C(O)CCc1ccc(O)cc1 [HPPA, p-Hydroxyphenylpropionic acid]
[1]; [6]
  LDH Activity in Lung: 271.19 ± 27.70 ## units/gprot
  MPO Activity in Lung: 1.756 ± 0.190 ## units/gprot
  MPO Content in Lung: 324.09 ± 36.33 ## pg/ml
  Lung Tissue Dry-to-wet Ratio: 4.90 ± 0.52
[3]; Staphylococcus aureus, strain S4, read-out: MIC
  MIC: 64 µg/mL (≈ 385 µM)
[3]; strain S1
  MIC: 64 µg/mL (≈ 385 µM)
[3]; strain S2
  MIC: 64 µg/mL (≈ 385 µM)
[3]; strain S3
  MIC: 64 µg/mL (≈ 385 µM)
[3]; strain S5
  MIC: 64 µg/mL (≈ 385 µM)
[3]; strain S6
  MIC: 64 µg/mL (≈ 385 µM)
[3]; strain S7
  MIC: 64 µg/mL (≈ 385 µM)
[3]; strain S8
  MIC: 64 µg/mL (≈ 385 µM)
[3]; strain S9
  MIC: 64 µg/mL (≈ 385 µM)
[3]; strain S10
  MIC: 64 µg/mL (≈ 385 µM)
[2]; [7]
  Cchord: 0.041 ± 0.0029 mL/cm H2O
  FEV50/FVC: 0.333 ± 0.040
  Lymphocyte count of alveolar lavage fluid: 1.014 ± 0.107# 10^5/mL
  Monocyte count of alveolar lavage fluid: 3.100 ± 0.554## 10^5/mL
  Neutrophil count of alveolar lavage fluid: 0.743 ± 0.190## 10^5/mL
  IL-1β in lung tissue: 35.27 ± 6.509 pg/mL
  IL-6 in lung tissue: 1027 ± 90.56 pg/mL
  IL-18 in lung tissue: 157.4 ± 9.098 pg/mL
  LTB4 in lung tissue: 7241 ± 1024 pg/mL
  TNF-α in lung tissue: 92.45 ± 13.24 pg/mL
[2]; low-dose 15 mg/kg intragastric
  Cchord: 0.0448 ± 0.0041 mL/cm H2O
  FEV50/FVC: 0.360 ± 0.039
  Lymphocyte count of alveolar lavage fluid: 1.317 ± 0.117 10^5/mL
  Monocyte count of alveolar lavage fluid: 3.871 ± 0.544 10^5/mL
  Neutrophil count of alveolar lavage fluid: 1.129 ± 0.287 10^5/mL
  IL-1β in lung tissue: 47.18 ± 6.822 pg/mL
  IL-6 in lung tissue: 1483 ± 300.3 pg/mL
  IL-18 in lung tissue: 180.1 ± 6.667 pg/mL
  LTB4 in lung tissue: 8344 ± 1356#^ pg/mL
  TNF-α in lung tissue: 126.3 ± 10.34 pg/mL
[4]; strain K11
  MIC: 64 µg/mL (≈ 385 µM)
[4]; Klebsiella pneumoniae, strain K1
  MIC: 128 µg/mL (≈ 770 µM)
[4]; Klebsiella pneumoniae, strain K2
  MIC: 128 µg/mL (≈ 770 µM)
[4]; Klebsiella pneumoniae, strain K3
  MIC: 128 µg/mL (≈ 770 µM)
[4]; Klebsiella pneumoniae, strain K4
  MIC: 128 µg/mL (≈ 770 µM)
[4]; Klebsiella pneumoniae, strain K5
  MIC: 128 µg/mL (≈ 770 µM)
[4]; Klebsiella pneumoniae, strain K6
  MIC: 64 µg/mL (≈ 385 µM)
[4]; Klebsiella pneumoniae, strain K7
  MIC: 128 µg/mL (≈ 770 µM)
[4]; Klebsiella pneumoniae, strain K8
  MIC: 64 µg/mL (≈ 385 µM)
[4]; Klebsiella pneumoniae, strain K9
  MIC: 64 µg/mL (≈ 385 µM)
[4]; Klebsiella pneumoniae, strain K10
  MIC: 64 µg/mL (≈ 385 µM)
[4]; Klebsiella pneumoniae, strain K12
  MIC: 64 µg/mL (≈ 385 µM)

— patent US20220362186A1, “Application of p-Hydroxyphenylpropionic Acid to Prepare Medicine for Preventing and Treating Respiratory Tract Infection” (SUN YAT-SEN UNIVERSITY, priority 2020, published 2022)
